Experimental data taken from paper PMC11460631, “Inhibition of transient receptor potential vanilloid 3 channels by antimalarial hydroxychloroquine alleviates TRPV3-dependent dermatitis” (The Journal of Biological Chemistry, 2024).

Experiments:
mTRPV4 = target: T1, mTRPV4 (Mus musculus, UniProt Q9EPK8); test: Whole-cell current recordings, mTRPV4; assay type: cell-based, murine; settings: 100 μM HCQ; current activated by 1 μM GSK1016790A
T1 construct: YFP or GFP; expressed in transfected cells; host or cells: HEK293T
Description: To elucidate the specificity of HCQ inhibition on TRPV3, we conducted whole-cell current recordings on other known pruritus-related TRP channels, such as hTRPA1, mTRPV1, mTRPV4, and mTRPM8 (Fig. 3, A and F). […] Because of the relatively larger inhibition of HCQ on mTRPM8 current, we tested the concentration dependence of HCQ on mTRPM8 channels.
(§1) HEK293T cells are cultured using Dulbecco's modified Eagle's medium containing 10% fetal bovine serum and 1% penicillin-streptomycin in a cell incubator with 5% CO2 at 37 °C. Plasmids of murine TRPV1, TRPV4, TRPM8, and human TRPV3, TRPA1 are labeled with YFP or GFP as indicators for subsequent electrophysiological recordings. Complementary DNA constructs of ion channels were transiently transfected with Lipofectamine 3000 (Invitrogen). And 12 to 18 h after transient transfection, electrophysiological recordings were performed.
Patch-clamp recordings were carried out with a HEKA EPC10 amplifier controlled by PatchMaster software (HEKA; https://www.heka.com/products/products_main.html#soft_pm) ([36]). Patch pipettes were prepared from borosilicate glass and fire-polished to the resistance of 3 to 8 MΩ by P-97 puller for whole-cell recordings. For single-channel recordings, patch pipettes were fire-polished to a higher resistance of 6 to 10 MΩ. […]

TRPV3 = target: T2, TRPV3 (Homo sapiens, UniProt Q8NET8); test: Calcium imaging (Fluo-4/AM) of TRPV3-expressing HEK293T cells; assay type: cell-based
T2 construct: YFP or GFP; expressed in transfected cells; host or cells: HEK293T
T2 sequence (Q8NET8 1-790): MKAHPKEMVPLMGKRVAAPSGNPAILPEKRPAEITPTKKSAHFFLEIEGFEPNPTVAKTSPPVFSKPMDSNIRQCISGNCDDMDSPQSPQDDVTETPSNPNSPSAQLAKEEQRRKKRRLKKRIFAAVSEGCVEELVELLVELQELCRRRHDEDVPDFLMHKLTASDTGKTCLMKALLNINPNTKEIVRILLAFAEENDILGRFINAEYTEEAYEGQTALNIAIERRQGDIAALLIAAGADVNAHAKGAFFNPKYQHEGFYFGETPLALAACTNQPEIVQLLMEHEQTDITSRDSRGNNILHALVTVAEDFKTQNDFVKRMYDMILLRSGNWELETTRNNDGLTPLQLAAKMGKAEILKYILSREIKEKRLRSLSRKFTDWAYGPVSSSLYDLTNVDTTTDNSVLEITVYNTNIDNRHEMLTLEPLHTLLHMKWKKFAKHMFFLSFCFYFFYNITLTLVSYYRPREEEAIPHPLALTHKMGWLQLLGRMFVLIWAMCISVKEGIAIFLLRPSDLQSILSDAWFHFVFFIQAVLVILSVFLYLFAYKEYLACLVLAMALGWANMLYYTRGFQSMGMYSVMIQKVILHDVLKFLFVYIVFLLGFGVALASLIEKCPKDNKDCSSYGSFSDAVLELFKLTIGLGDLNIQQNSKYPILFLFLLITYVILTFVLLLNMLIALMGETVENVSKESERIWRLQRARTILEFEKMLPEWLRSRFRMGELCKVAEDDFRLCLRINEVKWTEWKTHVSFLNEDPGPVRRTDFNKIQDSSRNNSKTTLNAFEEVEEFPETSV
Description: as §1
Calcium imaging assays were performed as described previously ([37]). Transiently transfected HEK293 cells seeded on 25 mm coverslips were washed twice with an extracellular solution containing 140 mM NaCl, 5 mM KCl, 2 mM MgCl2, 2 mM CaCl2, 10 mM glucose, and 10 mM Hepes (pH 7.4), followed by incubation in 2 ml of extracellular solution supplemented with 2 μM Fluo-4/AM as a Molecular Probes at room temperature for 60 min. Fluorescence images of HEK293T cells were acquired with a Nikon Eclipse Ti2 microscope with an optiMOS charge-coupled device camera controlled by the Ocular Software ([…]; https://www.photometrics.com/products/ocular).

T1 sequence (Q9EPK8 whole entry): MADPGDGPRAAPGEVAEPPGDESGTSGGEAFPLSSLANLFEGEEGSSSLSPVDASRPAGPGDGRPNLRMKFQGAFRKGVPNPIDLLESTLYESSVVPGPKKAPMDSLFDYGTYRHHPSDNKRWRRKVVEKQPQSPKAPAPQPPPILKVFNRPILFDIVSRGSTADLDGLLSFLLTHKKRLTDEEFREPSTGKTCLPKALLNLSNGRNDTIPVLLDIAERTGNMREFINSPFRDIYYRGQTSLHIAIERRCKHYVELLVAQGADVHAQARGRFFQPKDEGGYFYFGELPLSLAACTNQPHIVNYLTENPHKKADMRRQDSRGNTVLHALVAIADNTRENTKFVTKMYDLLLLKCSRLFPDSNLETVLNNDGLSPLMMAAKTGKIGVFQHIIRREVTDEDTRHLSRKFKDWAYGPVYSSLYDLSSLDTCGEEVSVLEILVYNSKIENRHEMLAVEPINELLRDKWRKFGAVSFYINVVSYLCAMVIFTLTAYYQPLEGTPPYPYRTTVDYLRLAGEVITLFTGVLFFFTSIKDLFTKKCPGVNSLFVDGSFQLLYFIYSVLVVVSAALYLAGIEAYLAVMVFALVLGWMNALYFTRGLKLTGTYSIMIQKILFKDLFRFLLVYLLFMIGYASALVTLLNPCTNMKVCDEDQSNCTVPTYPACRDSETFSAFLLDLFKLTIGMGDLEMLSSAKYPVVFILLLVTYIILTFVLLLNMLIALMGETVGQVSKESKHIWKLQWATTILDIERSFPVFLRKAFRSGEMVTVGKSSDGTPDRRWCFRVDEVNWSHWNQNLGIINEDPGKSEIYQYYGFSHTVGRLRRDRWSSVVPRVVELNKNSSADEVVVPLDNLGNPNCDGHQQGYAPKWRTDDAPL

In the case of `CCN(CCO)CCCC(C)Nc1ccnc2cc(Cl)ccc12` (stereo not drawn) [HCQ, hydroxychloroquine], the “reduction of mTRPV4 current” value (mTRPV4) was 18.37% ± 11.21%, the “calcium influx, area under the curve (AUC)” value (TRPV3; 100 μM HCQ mixed with 1 mM 2-APB) was 8.65 ± 0.83 and the “calcium influx, area under the curve (AUC)” value (TRPV3; 300 μM HCQ mixed with 1 mM 2-APB) was 0.28 ± 0.05.
